Laboratory results published in patent US20250186405A1, “Compound For Use In Treating Narcolepsy” (Alkermes, Inc., priority 2023, published 2025).

Tested on: subjects with narcolepsy type-1 (NT1)
Experiment: Part 4 NT1: Maintenance of Wakefulness Test (MWT) sleep latency
Type: in vivo, human
Details: for change from baseline in average sleep latency on MWT vs placebo: 1, 3 and 8 mg
Method: On Day −1, approximately 25 hours prior to study drug administration (on Day 1), baseline assessments for Maintenance of Wakefulness Test (MWT) began and were collected in a series of trials over approximately 10 hours.
At specified time points (Part 4), MWT assessments were performed and took up to 40 minutes to complete. The MWT is the standard objective measure of an individual's ability to remain awake during the daytime in a darkened, quiet environment and is commonly used to assess response to treatment. The MWT assessments were performed according to American Academy of Sleep Medicine (AASM) guidance. During the MWT trials, subjects were seated in a bed or reclining chair in a darkened room with their back and head supported such that their neck is not uncomfortably flexed or extended. Subjects are instructed to sit still and remain awake for as long as possible during each 40-minute trial. If the subject fell asleep during a trial, they were awakened, and the trial was terminated. […] Upon completion of the trial, the subject returned to a normal environment/ambiance and remained awake (and were awakened if they fall asleep) until the next trial.
Once Part 4 was completed, the EEG data recorded during the MWT, as well as the technician notes, were transferred to the EEG vendor for further analysis. Technician notes were also maintained for transfer to Sponsor at the end of the study. A precise assessment of sleep latency was conducted by an experienced sleep scorer from the EEG vendor, and spectral analysis was performed on the EEG data recorded during MWT to assess absolute and relative powers in standard frequency bands (i.e., qEEG). All raw data and analysis results were transferred to the Sponsor.
For the changes from baseline in average sleep latency across the first 4 sessions of the MWT, descriptive statistics were provided by dose level. Mixed model with repeated measure (MMRM) for the 4-period crossover design were conducted with the change from baseline as a dependent variable, and the dose level and the period as fixed factors. The differences in the least square means between each Compound A dose level and the placebo (each Compound A dose level—the placebo), and the 2-sided CIs were provided.
Evaluation of Compound A effects on average sleep latency across 4 timepoints of MWT (2-, 4-, 6-, and 8-hours post-dose) from 4 patients with NT1 has been conducted at pre-dose baseline series on Day −1, and each of the crossovers (Days 1, 3, 5 and 7), testing placebo, and active dose levels of 1, 3, and 8 mg in the patients with NT1 compared to placebo.
Evaluation of Compound A effects on average sleep latency across 4 timepoints of MWT (2-, 4-, 6-, and 8-hours post-dose) from 10 patients with NT1 (including the 4 patients described above in 4.19.1) has been conducted at pre-dose baseline series on Day −1, and each of the crossovers (Days 1, 3, 5 and 7), testing placebo, and active dose levels of 1, 3, and 8 mg in the patients with NT1 compared to placebo.

[1] = 1 mg, NT1, N = 9 (10-patient analysis, Table 13a)
[2] = 3 mg, NT1, N = 9 (10-patient analysis, Table 13a)
[3] = 8 mg, NT1, N = 10 (10-patient analysis, Table 13a)

CS(=O)(=O)N[C@H]1CCCN2C(=O)COc3ccccc3C3CCC(CC3)OCC12 (stereo partly drawn) [Compound A, N-[(4S,4aR,7α,10α)-1,2,3,4,4a,5,7,8,9,10,16,17-dodecahydro-17-oxo-7,10-ethanopyrido[1,2-d][1,7,4]benzodioxaazacyclotridecin-4-yl]methanesulfonamide]
average sleep latency improvement on MWT (1 mg, 4 patients with NT1): 19.5 min | Change from Day −1 in Average Sleep Latency on the MWT, LSM difference vs placebo (1 mg, NT1, N = 4): 19.47 min | Change from Day −1 in Average Sleep Latency on the MWT, LSM (1 mg, NT1, N = 4, average of 2, 4, 6, 8 h post-dose): 18.41 min | Change from Day −1 in Average Sleep Latency on the MWT, LSM [1]: 16.95 min | Change from Day −1 in Average Sleep Latency on the MWT, LSM difference vs placebo [1]: 18.38 min | MWT by-timepoint effect (3 mg, 4 patients with NT1): maximum effect over 2, 4 and 6-hour timepoints, and meaningful effect at 8 hours | Change from Day −1 in Average Sleep Latency on the MWT, LSM difference vs placebo (3 mg, NT1, N = 4): 31.16 min | Change from Day −1 in Average Sleep Latency on the MWT, LSM (3 mg, NT1, N = 4, average of 2, 4, 6, 8 h post-dose): 30.09 min | Change from Day −1 in Average Sleep Latency on the MWT, LSM [2]: 21.15 min | Change from Day −1 in Average Sleep Latency on the MWT, LSM difference vs placebo [2]: 22.57 min | MWT effect at every timepoint (maximum score 40 minutes) (8 mg, 4 patients with NT1, including 10 hours post-dose): 40 min | Change from Day −1 in Average Sleep Latency on the MWT, LSM difference vs placebo (8 mg, NT1, N = 4): 38.13 min | Change from Day −1 in Average Sleep Latency on the MWT, LSM (8 mg, NT1, N = 4, average of 2, 4, 6, 8 h post-dose): 37.06 min | Change from Day −1 in Average Sleep Latency on the MWT, LSM [3]: 32.55 min | Change from Day −1 in Average Sleep Latency on the MWT, LSM difference vs placebo [3]: 33.97 min | change from baseline in average sleep latency on MWT vs placebo (4 patients with NT1, 2-8 hours post-dose): statistically significant improvement in sleep latency | change from baseline in average sleep latency on MWT vs placebo (10 patients with NT1, 2-8 hours post-dose): statistically significant improvement in sleep latency
